Measured values taken from ChEMBL document CHEMBL1157539, “Thousands of chemical starting points for antimalarial lead identification” (Nature, 2010).

Test system: Plasmodium falciparum
Assay: GSK_TCMDC: Inhibition of Plasmodium falciparum 3D7 in whole erythrocytes, using parasite LDH activity as an index of growth.
Type: functional, organism-based

Structure (SMILES) | XC50 (Plasmodium falciparum, 3D7) [µM] | XC50 [µM]
O=C(Nc1cccc(-c2ccc(CN3CCCC3)cc2)c1)c1ccc(F)cc1 | 1.08 | 
C[C@@H](N/C(=N\c1ccccc1Cl)Nc1ccc(C#N)cc1O)c1ccc(Br)cc1 | 0.753 | 
CCCN(CCC)C(=O)c1cc(C(=O)N[C@@H](Cc2ccccc2)[C@H](O)CNC(C)(C)c2cccc(OC)c2)cc(N2CCCCS2(=O)=O)c1 | 0.0298 | 
N=C(N)NN=Cc1c[nH]c2ccc(-c3ccccc3)cc12 | 0.528 | 
CN(C)CCOc1cc(NC(=O)Nc2cccc3c(-c4ccncc4)cccc23)ccc1I | 0.734 | 
Cc1ncc(CN2CCC(C(=O)Nc3ccc(-c4nc5ccccc5o4)cc3)CC2)s1 | 0.393 | 
O=C(NCCCN1CCC(N2CCCCC2)CC1)C1=Cc2cc(Br)ccc2OC1 | 0.853 | 
CN1CCCN(c2ccnc3cc4c(cc23)N(C(=O)c2ccc(Cl)c(Cl)c2)CC4)CC1 | 0.87 | 
Cc1noc(C)c1-c1cccc(CNCc2cccc(-c3cccc(-c4nc5cccc(C)c5[nH]4)c3)c2)c1 | 0.37 | 
O=C(/C=C/c1ccc(Cl)c(Cl)c1)NCCCCCN1CCCC(CCCNC(=O)Nc2ccc(C(F)(F)F)cc2)C1 (stereo not drawn) | 0.525 | 
C=CCNC(=O)CCCNC(=N)N | 0.717 | 
Cc1cc(N[C@@H](Cc2ccccc2)C(=O)NCc2cccs2)nc(NCC2CCCCC2)n1 | 0.988 | 
CCN1CCN(CCCCNc2c3ccccc3nc3ccccc23)CC1 | 0.86 | 
CC1CN(c2cccc3c2nc(-c2cncc(C#N)c2)n3CCNCc2ccccc2)CC(C)O1 (stereo not drawn) | 1.22 | 
Cc1[nH]c2cc(Cl)ccc2c1C1=CCN(CCCCC2(C)C(=O)Nc3ccccc32)CC1 (stereo not drawn) | 0.333 | 
COc1ccc2c(c1CNCCCCCCNCc1c(OC)ccc3c1CCCC3)CCCC2 | 0.907 | 
Cc1cnc(-c2ccc(NC(=O)N3CCc4cc5nccc(N6CCN7CCC[C@H]7C6)c5cc43)c3ccccc23)o1 | 0.858 | 
Cc1cc(N[C@@H](Cc2ccccc2)C(=O)NCCOc2ccccc2)nc(NCCc2ccc(F)cc2)n1 | 0.603 | 
O=C(c1cc(-c2cccs2)n[nH]1)N1CCN(S(=O)(=O)c2ccc(Cl)s2)CC1 | 0.868 | 
Brc1cc(CNCCCNc2nc3ccccc3[nH]2)sc1Br | 0.221 | 
CC1(C)C(N(O)C(=O)Nc2ccc(Cl)c(Cl)c2)N(c2ccc(Cl)c(Cl)c2)C(=O)N1CCc1ccccc1 (stereo not drawn) | 0.823 | 
S=C(NCC1CCCCC1)NC1CCC(CN2CCC(c3c[nH]c4ccccc34)CC2)CC1 (stereo not drawn) | 1.11 | 
O=C(Nc1cccc(-c2cccc(-c3nc4cc(F)ccc4[nH]3)c2)c1)c1c[nH]cn1 | 0.459 | 
Cn1nc(-c2ccc(Cl)cc2)c2cc(C(=O)NCCN3CCOCC3)sc21 | 0.721 | 

Structure (SMILES) | XC50 (Plasmodium falciparum, 3D7) [µM] | XC50 [µM]
CCOc1cc(O)c(-c2nc(N)ncc2-c2ccc3c(c2)OCCO3)cc1CC | 0.729 | 
CCCCCn1c(Sc2ccc(C#N)c([N+](=O)[O-])c2)nnc1-c1cccc(Cl)c1 | 0.768 | 
Clc1cc(Br)ccc1-c1ccc(CNCC2CCNCC2)o1 | 1.51 | 
CCNc1cc(C(=O)N[C@@H](Cc2ccccc2)[C@H](O)CN[C@@H]2CCc3ccccc32)cc(N2CCCCS2(=O)=O)c1 | 0.555 | 
CN1CCN(c2ccnc3ccc(NC(=O)Nc4ccc(-c5ccncc5)c(C(F)(F)F)c4)cc23)CC1 | 0.823 | 
CCc1cn2c3c(cc(C(=O)N[C@@H](Cc4ccccc4)[C@H](O)CNCCOC)cc13)N(C)S(=O)(=O)CC2 | 0.954 | 
COc1ccc2nccc([C@@H](O)CN3CCC(NCc4cnc5snnc5c4)C(F)C3)c2c1 (stereo partly drawn) | 1.35 | 
NC1=NC(c2ccccc2)(c2cccc(O)c2)C(=O)N1CCCc1ccccc1 (stereo not drawn) | 1.23 | 0.836
Nc1ncc(-c2cccc(OCc3ccccc3)c2)cc1-c1nnc2ccc(Cl)nn12 | 1.43 | 
Nc1ccc2[nH]cc(C3CCN(CCC4CCN(C(=O)/C=C/c5ccc(Cl)c(Cl)c5)CC4)CC3)c2n1 | 0.737 | 
Cc1ccccc1N1CCN(c2ccc(C(=O)NC(C)C)cn2)CC1 | 0.901 | 
CC1(C)NC(N)=NC(=N)N1OCc1cc(Cl)c(Cl)cc1CON1C(=N)N=C(N)NC1(C)C | 0.0146 | 
O=C(Nc1ccc(-c2csc(-c3nc4ccccc4[nH]3)c2)cc1)Nc1ccsc1 | 0.552 | 
Cc1nc(N)nc(N)c1OCCCCOc1ccccc1 | 0.0535 | 
Cc1cccc2nc(-c3cccc(-c4ccc(NC(=O)Cc5ccon5)cc4)c3)[nH]c12 | 1.09 | 
O=C(/C=C/c1ccc(Cl)c(Cl)c1)NCCCCCN1CC[C@H](NC(=O)Nc2ccc(Oc3ccccc3)cc2)C1 | 0.703 | 
COc1ccc2nccc([C@@H](O)CN3CCC(NC/C=C/c4cccnc4)CC3)c2c1 | 0.622 | 
CC(=O)N(C)c1cccc(C(=O)Nc2ccc(-c3cccc(-c4nc5cccc(C)c5[nH]4)c3)cc2)c1 | 0.651 | 
Cc1cc2nc(-c3ccc(OCC(=O)NCc4ccc(C(C)(C)C)cc4)cc3)[nH]c2cc1C | 1.06 | 
Cc1ccc(/C=C/C(=O)NCCCCCN2CCN(C(=O)Nc3ccc(Cl)c(C(F)(F)F)c3)CC2)cc1 | 1.11 | 
Cc1[nH]c(C)c(-c2ccc(-c3ccc(Cl)cc3)cc2)c(=O)c1Cl | 0.215 | 
COc1cccc(NC(=O)c2cc([N+](=O)[O-])ccc2NC(=O)CN2CCc3ccccc3C2)c1 | 0.589 | 
O=S(=O)(c1ccc(OCc2ccc(Cl)cc2)cc1)c1cc2c(c(-c3ccc(F)cc3)c1)CCN(CC1CC1)CC2 | 1.12 | 
O=C(NCCCCN1CCN(c2cccc3ccccc23)CC1)c1ccc(NC(=O)c2ccc(Cl)cc2)cc1 | 0.358 | 

Structure (SMILES) | XC50 (Plasmodium falciparum, 3D7) [µM] | XC50 [µM]
O=C(Nc1ccc(F)cc1)NC1CCN(CCCCCNC(=O)C2CC2c2ccc(Cl)c(Cl)c2)CC1 (stereo not drawn) | 0.987 | 
CCCc1cc(NCC)nc(Nc2ccc(C)cc2)n1 | 0.894 | 
COc1cc(NC(=O)c2nn(CCCN3CCC4(CC3)C(=O)NCN4c3ccccc3)cc2-c2ccc(Cl)c(Cl)c2)cc(OC)c1OC | 0.753 | 
Oc1c(C(Nc2nc3ccccc3s2)c2ccccc2)ccc2cccnc12 (stereo not drawn) | 0.646 | 
CCC(ON1C(N)=NC(N)=NC1(C)C)c1ccc(Cl)cc1 (stereo not drawn) | 0.0032 | 
O=[N+]([O-])c1ccc(C2=NN(S(=O)(=O)c3c(Cl)cc(Cl)cc3Cl)CCCC2)cc1 | 0.125 | 
O=[N+]([O-])c1ccc2nc(Nc3cccc(C(F)(F)F)c3)c(Nc3cccc(C(F)(F)F)c3)nc2c1 | 0.483 | 
Cc1cccc2nc(-c3ccc(-c4cccc(NC(=O)NCc5cccc(F)c5)c4)cc3)[nH]c12 | 0.853 | 
Nc1nc(N)c2c(ccc3c2ccn3CC2CC2)n1 | 0.211 | 
Cc1cc(N[C@@H](Cc2ccccc2)C(=O)NC2CCCC2)nc(NCCc2cccs2)n1 | 1.4 | 
CC(CN(C)C)C(=O)Nc1ccc(-c2cccc(-c3nc4cc(C(F)(F)F)ccc4[nH]3)c2)cc1 (stereo not drawn) | 0.21 | 
Nc1ncc(-c2ccc3nccc(-c4ccncc4)c3c2)cc1S(=O)(=O)N1CCCCC1 | 0.581 | 
Cc1ccc(C(C)C)cc1CON1C(=N)N=C(N)NC1(C)C | 0.0032 | 
O=C(Nc1ccc2c(c1)CCN2C1CCN(Cc2cccc(C(F)(F)F)c2)C1)c1ccco1 (stereo not drawn) | 0.564 | 
c1ccc(-c2nc(Nc3ccncc3)sc2-c2ccccc2)cc1 | 0.812 | 
CCCNCc1ccc(-c2ccc(CN(CC3CCCO3)C(=O)C3CC(=O)c4ccccc43)cc2)nc1 (stereo not drawn) | 0.86 | 
COc1ccc2ncc(F)c([C@@H](O)CN3CCC(NCc4cc5c(cn4)OCS5)CC3)c2c1 | 0.141 | 
COc1cc(C(=O)Nc2nc3ccccc3[nH]2)ccc1OCC(=O)Nc1cccc(C(F)(F)F)c1 | 0.738 | 
CNc1ccc(CNCc2cccc(-c3ccc(-c4nc5ccccc5[nH]4)cc3)c2)cc1 | 0.3 | 
O=S(=O)(NCCN1CCCC1)c1ccc(-c2cccc(CNCc3ccc(F)cc3)c2)cc1 | 0.729 | 
CCN(CC)CCN(Cc1ccc(-c2ccc(C(F)(F)F)cc2)cc1)C(=O)Cn1c(CCc2cc(F)ccc2F)nc(=O)c2ccccc21 | 0.828 | 
CC[C@H](NC(=O)c1ccc(NC(=O)OC(C)(C)C)cc1)C(=O)N[C@@H](CO)C(=O)NCCCCc1ccccc1 | 0.83 | 
COc1ccc(-c2cccc(NC(=O)c3ccccc3)c2)cc1CN1CCCN(C)CC1 | 0.733 | 
O=C(Nc1ccc(OC2CCN(Cc3ccc(F)cc3)C2)c(Cl)c1)c1cccs1 (stereo not drawn) | 0.128 | 

Structure (SMILES) | XC50 (Plasmodium falciparum, 3D7) [µM] | XC50 [µM]
COc1ccc2nc3cc(Cl)ccc3c(NCCO)c2c1 | 0.8 | 
O=C1Nc2cccc3c2C1(CCCCN1CCC(c2cc4ccncc4[nH]2)CC1)CCC3 (stereo not drawn) | 0.787 | 0.911
Oc1cc(Nc2ccnc3cc(I)ccc23)ccc1F | 0.74 | 
CCCN(CCC)CCCNc1ccc(C(=O)Nc2ccc(OCC)cc2)cc1[N+](=O)[O-] | 0.992 | 
CCc1cccc(-c2cc(N)n(C)c3nc(N)nc(=O)c2-3)c1 | 1.12 | 
Cc1ccc(N2C(N)=NC(N)=NC2(C)C)cc1 | 0.0366 | 
CCN(CC)C(=O)C(=O)c1c[nH]c2ccc(Cl)cc12 | 0.0811 | 
CS(=O)(=O)NCCCNCc1cccc(-c2ccc(-c3nc4cc(C(F)(F)F)ccc4[nH]3)s2)c1 | 0.88 | 
Cc1ccc(Cn2nc(Cl)c(N3CCNCC3)cc2=O)cc1NC(=O)Nc1ccc(-c2ccccc2)cc1 | 0.675 | 
COC(=O)c1cccc(CNCc2cccc(-c3ccc(-c4nc5cc(C(F)(F)F)ccc5[nH]4)cc3)c2)c1 | 0.257 | 
CC(C)CC(=O)NC1CCN(Cc2c(-c3cccs3)nc3ccccc3c2C(=O)N[C@@H](C)C2CCCCC2)CC1 | 0.819 | 
Cn1cc(CCNc2ccnc(NCCc3coc4ccccc34)n2)c2ccccc21 | 1.06 | 
Fc1ccc2[nH]cc(CCNCc3ccc(-c4cccc(-c5nc6ccccc6[nH]5)c4)cc3)c2c1 | 0.174 | 
COc1ccc2nccc([C@@H](O)CN3CCC(NCc4cc5ccccc5s4)CC3)c2c1 | 0.347 | 
CCC(C)OC(=O)C1=C(C)NC2=C(C(=O)CC(c3ccc(OC)c(OC)c3)C2)C1c1cccc(O)c1 (stereo not drawn) | 0.193 | 
Cc1ccc2[nH]c(C)cc(=NN=Cc3cccc(Cl)c3)c2c1 | 0.739 | 
O=C(Nc1ccc(C(=O)OCC2CCCN3CCCCC23)cc1)c1ccc([N+](=O)[O-])cc1 (stereo not drawn) | 0.716 | 
CC1(C)N=C(N)N=C(Nc2ccc(F)c(F)c2)N1 | 0.0525 | 
Nc1nc(N)c2cc(C#Cc3ccc(-c4ccccc4)cc3)ccc2n1 | 0.81 | 
C[C@@H](Oc1cc(-n2cnc3ccc(OCC4CCN(S(C)(=O)=O)CC4)cc32)sc1C(N)=O)c1ccccc1C(F)(F)F | 1.02 | 
O=C(Nc1cccc(CN2CCCN(Cc3cccnc3)CC2)c1)c1ccc(Cl)c(Cl)c1 | 0.928 | 
CN1CCC(NCc2cccc(-c3ccc(S(=O)(=O)NCCN4CCCC4)c(F)c3)c2)CC1 | 1.01 | 
O=C(Nc1ccc(-c2nc3ccccc3[nH]2)cc1)C1CCCN(C2CCC2)C1 (stereo not drawn) | 1.35 | 
COc1ccc2c(c1)ncn2-c1cc(OCc2ccncc2Br)c(C(N)=O)s1 | 0.609 | 
